Laboratory results as given in ChEMBL document CHEMBL1201862, “PubChem BioAssay data set” (2004).
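Each compound was tested at five concentrations against cells in 96-well plates for 48 hours. At the GI50, growth is halved.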 Active and inactive are the calls of the source. No stated cut-off is given here; in the data, active = GI50 up to about 1.1 µM and inactive = higher.

How the values were obtained:
Assay in all cases: DTP human tumour cell line panel, 48 h
[1] = system: HT-29
[2] = system: OVCAR-4
[3] = system: EKVX
[4] = system: U-251
[5] = system: MOLT-4
[6] = system: UO-31
[7] = system: DMS-273
[8] = system: TK-10
[9] = system: SK-OV-3
[10] = system: IGROV-1
[11] = system: Malme-3M
[12] = system: SN12C
[13] = system: HCT-116
[14] = system: SF-268
[15] = system: OVCAR-3
[16] = system: SK-MEL-5

Measured: GI50

COC(=O)C1=C(C)N(NC(N)=O)C2(N)N(NC(N)=O)C(C)=C(C(=O)OC)C12C#N (configuration not stated)
inactive: [1] > 100 µM | [2] > 100 µM | [3] > 100 µM | [4] > 100 µM | [5] > 100 µM | [6] > 100 µM | [7] > 100 µM | [8] > 100 µM | [9] > 100 µM | [10] > 100 µM | [11] > 100 µM | [12] > 100 µM | [13] > 100 µM | [14] > 100 µM | [15] > 100 µM

O=c1ccn(C2(CO)C=C(CO)C(O)C2O)c(=O)[nH]1 (configuration not stated)
inactive: [2] > 25.7 µM | [3] > 25.7 µM | [16] > 25.7 µM | [4] > 25.7 µM | [5] > 25.7 µM | [6] > 25.7 µM | [7] > 25.7 µM | [8] > 25.7 µM | [9] > 25.7 µM | [10] > 25.7 µM | [11] > 25.7 µM | [12] > 25.7 µM | [13] > 25.7 µM | [14] > 25.7 µM | [15] > 25.7 µM

N#Cc1cccc(/C=N/C23CC4CC(CC(C4)C2)C3)c1
inactive: [1] > 100 µM | [2] > 100 µM | [3] > 100 µM | [16] > 10 µM | [4] > 100 µM | [5] 99.1 µM | [6] > 100 µM | [7] > 100 µM | [8] > 100 µM | [9] > 100 µM | [10] > 100 µM | [11] > 100 µM | [12] > 100 µM | [13] 57.3 µM | [14] > 100 µM | [15] > 100 µM

Cc1ccc(NS(=O)(=O)c2cc(C(C)(C)C)ccc2OCCOCCOCCOc2ccc(C(C)(C)C)cc2S(=O)(=O)Nc2ccc(C)cc2)cc1
inactive: [1] > 100 µM | [2] > 100 µM | [3] > 100 µM | [16] > 100 µM | [4] > 100 µM | [5] > 100 µM | [6] > 100 µM | [7] > 100 µM | [8] > 100 µM | [9] > 100 µM | [10] > 100 µM | [11] > 100 µM | [12] > 100 µM | [13] > 100 µM | [14] > 100 µM | [15] > 100 µM

C1CCN(C2OC3C(COC3N3CCCCC3)OC2OC2CCO[C@@H]2N2CCCCC2)CC1 (some centres not stated)
inactive: [1] 89.1 µM | [2] 34 µM | [3] 33.8 µM | [16] 25.2 µM | [4] 30.5 µM | [5] 15.8 µM | [6] 44.5 µM | [7] 32.1 µM | [8] 80.9 µM | [9] 32.6 µM | [10] 79.3 µM | [11] 21.1 µM | [12] 43.1 µM | [13] 34.7 µM | [14] 53.7 µM | [15] 24.8 µM

COC(=O)C1=C(c2ccc(OC)c(OC)c2)OC(c2cc(OC)c(OC)c(OC)c2)C1 (configuration not stated)
inactive: [1] > 100 µM | [2] 16.1 µM | [3] > 100 µM | [16] 29.3 µM | [4] 13.5 µM | [6] > 100 µM | [7] 18.7 µM | [8] 39.2 µM | [9] 15.3 µM | [10] 24.7 µM | [11] 42.4 µM | [12] 34.3 µM | [14] 27.9 µM | [15] 38.1 µM

CC1CC(c2ccc([N+](=O)[O-])cc2)=Nc2ccccc2S1 (configuration not stated)
inactive: [1] 13.4 µM | [2] 16.7 µM | [3] 23.6 µM | [16] 21.5 µM | [4] 15.2 µM | [5] 18.1 µM | [6] 11.8 µM | [7] 20.2 µM | [8] 28.2 µM | [9] 17.1 µM | [10] 18 µM | [11] 35.9 µM | [12] 18.2 µM | [13] 1.75 µM | [14] 17.3 µM | [15] 11.5 µM

CCOC(=O)C(NC(=O)c1nc[nH]c1/N=N/N(C)C)C(C)C (configuration not stated)
inactive: [1] > 100 µM | [2] > 100 µM | [3] > 100 µM | [16] > 100 µM | [4] 40.8 µM | [5] > 100 µM | [6] > 100 µM | [7] > 100 µM | [8] > 100 µM | [9] > 100 µM | [10] > 100 µM | [11] > 100 µM | [12] > 100 µM | [13] > 100 µM | [14] > 100 µM | [15] > 100 µM

CN(C)C(=C1C(Br)=C(Br)C(Br)=C1Br)N(C)C
inactive: [1] > 100 µM | [2] > 100 µM | [3] > 100 µM | [16] > 100 µM | [4] > 100 µM | [5] > 100 µM | [6] > 100 µM | [7] > 100 µM | [8] > 100 µM | [9] > 100 µM | [10] > 100 µM | [11] > 100 µM | [12] > 100 µM | [14] > 100 µM | [15] > 100 µM

CCOC(=O)c1cnc2oc(-c3ccc(OC)cc3)nn2c1=O
inactive: [1] > 100 µM | [2] > 100 µM | [3] > 100 µM | [16] > 100 µM | [4] > 100 µM | [5] > 100 µM | [6] > 100 µM | [7] > 100 µM | [8] > 100 µM | [9] > 100 µM | [10] > 100 µM | [11] > 100 µM | [12] > 100 µM | [13] > 100 µM | [14] > 100 µM | [15] > 100 µM

C/C(=N\N(C)C)C(CN1CCCCC1)C(c1ccccc1)c1c(O)c2ccccc2oc1=O (configuration not stated)
inactive: [1] > 100 µM | [2] > 100 µM | [3] > 100 µM | [16] > 100 µM | [4] > 100 µM | [5] > 100 µM | [6] 32.6 µM | [7] > 100 µM | [8] > 100 µM | [9] 97.5 µM | [10] > 100 µM | [11] > 100 µM | [12] > 100 µM | [13] > 100 µM | [14] > 100 µM | [15] > 100 µM

C1=CC=C2NCCOCC/N=C3/C=CC=CC=C3NCCOCC/N=C\2C=C1
inactive: [1] 15.7 µM | [2] 59.2 µM | [3] > 100 µM | [16] 48.6 µM | [4] > 100 µM | [5] 44.9 µM | [6] > 100 µM | [7] > 100 µM | [8] > 100 µM | [9] > 100 µM | [10] > 100 µM | [11] 21.5 µM | [12] 77.6 µM | [13] 28.4 µM | [14] > 100 µM | [15] > 100 µM
